# Test system: NCI-60 cell lines
# Type: cell-based, human
Substance,Cell Line with which the peptide (and its tripeptide motif) is associated,Cell Line the peptide is associated with (peptide recovered from phage library selection on this NCI-60 cell line),Cell Line (NCI-60 cell line the peptide is associated with),Cell Line (NCI-60 cell line the peptide and its motif are associated with)
GVSIRQL,H460-Lung,–,–,–
WDGSSVS,–,SN12C Renal,–,–
GSGRGVA,Hop-92-Lung,–,–,–
RDGRAVR,–,–,KM-12C Colon,–
SVRVGSG,–,–,–,SK-MEL-28 Melanoma
KRESGLG,Hop-62-Lung,–,–,–
GLLSSFS,–,–,–,M14 Melanoma
DIALVSP,A549-Lung,–,–,–
AAVFVRS,K-562-Leukemia,–,–,–
AASPHPG,–,T-47D Breast,–,–
GVSALSL,–,–,HT-29 Colon,–
TNRFARG,–,T-47D Breast,–,–
LGGSGRR,H23-Lung,–,–,–
QRYHLRS,–,CAIK-1 Renal,–,–
LLGAGTP,–,–,–,IGROV1 Ovarian
RVRAVLG,–,–,–,SK-MEL-28 Melanoma
RGLGRPV,–,NCI/ADR-RES Breast,–,–
MVYSGVS,–,–,–,M14 Melanoma
WIWRAVS,–,–,SF-268 CNS,–
LMLVSGK,–,NCI/ADR-RES Breast,–,–
GSNGSSH,–,–,–,OVCAR-8 Ovarian
HAGLLVV,–,TK-10 Renal,–,–
GLVASMP,–,–,–,IGROV1 Ovarian
SNARGPR,K-562-Leukemia,–,–,–
IGVRGAV,–,–,MALME-3M Melanoma,–
GLVRCVL,–,–,COLO-205-Colon,–
PLRVDNL,H23-Lung,–,–,–

Substance,Cell Line with which the peptide (and its tripeptide motif) is associated,Cell Line the peptide is associated with (peptide recovered from phage library selection on this NCI-60 cell line),Cell Line (NCI-60 cell line the peptide is associated with),Cell Line (NCI-60 cell line the peptide and its motif are associated with)
SGVRPVI,–,–,–,SK-MEL-2 Melanoma
IGGREIT,H23-Lung,–,–,–
AAGRAGC,H322-Lung,–,–,–
GPSSAVE,–,–,–,OVCAR-5 Ovarian
RVSNEAL,–,–,–,SK-OV-3-3 Ovarian
DGAVILH,–,–,–,UACC 257 Melanoma
GGLSPHR,H460-Lung,–,–,–
GLMRLSH,–,–,–,UACC62 Melanoma
GGRAIGA,Hop-92-Lung,–,–,–
GSSRQFV,A549-Lung,–,–,–
ARHGSSV,–,–,–,M14 Melanoma
RSSGLGF,Hop-62-Lung,–,–,–
MFARGWE,CCRF-CEM Leukemia,–,–,–
PAFGPSR,RPMI-8226-Leukemia,–,–,–
GLRGSVW,–,–,COLO-205-Colon,–
LERAVRT,–,–,HT-29 Colon,–
SVYALRS,–,–,COLO-205-Colon,–
SGAGAAF,–,–,–,786-0 Renal
RGGQRAS,–,–,–,M14 Melanoma
RLLSEGY,–,–,SNB-75 CNS,–
EHYRLRS,–,–,HT-29 Colon,–
AAVETGV,–,–,SF-268 CNS,–
DGGRRSS,EKVX-Lung,–,–,–
RWRSGRV,–,–,HT-29 Colon,–
GFVAGRT,–,–,–,SK-MEL-5 Melanoma
VFQRSSG,A549-Lung,–,–,–
AWAGGDM,–,–,–,DU-145 Prostate

# — patent US7781565B2 (priority 2006, dated 2010)
